From PubChem BioAssay AID1963850 (Molecular Pharmacology Branch, DTP, NCI, 2024)

Tested on: 192522-019-R-J2-PDC complex tumor spheroid viability
Test: Anticancer human tumor 192522-019-R-J2-PDC patient-derived colon adenocarcinoma cell line growth inhibition [POLQ]
Conditions: for IC50: curve of first compound; for viability, T/C: stronger effect = lower value
Summary of the method: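 Patient-derived tumour cells were co-cultured with HUVEC and mesenchymal stem cells as multicellular spheroids at 37 °C. They were treated with POLQ inhibitors (novobiocin, ART-558, RP6685) alone or combined with other agents. Top concentrations were at or near clinical Cmax (otherwise 10 microM; SN-38 at 1 microM), decreasing in half-log steps.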

[1] = second compound 0.0316 µM, first compound 0.0316 µM
[2] = second compound 0.0316 µM, first compound 0.1 µM
[3] = second compound 0.0316 µM, first compound 0.316 µM
[4] = second compound 0.0316 µM, first compound 1 µM
[5] = second compound 0.1 µM, first compound 0.0316 µM
[6] = second compound 0.1 µM, first compound 0.1 µM
[7] = second compound 0.1 µM, first compound 0.316 µM
[8] = second compound 0.1 µM, first compound 1 µM
[9] = second compound 0.316 µM, first compound 0.0316 µM
[10] = second compound 0.316 µM, first compound 0.1 µM
[11] = second compound 0.316 µM, first compound 0.316 µM
[12] = second compound 0.316 µM, first compound 1 µM
[13] = second compound 1 µM, first compound 0.0316 µM
[14] = second compound 1 µM, first compound 0.1 µM
[15] = second compound 1 µM, first compound 0.316 µM
[16] = second compound 1 µM, first compound 1 µM
[17] = second compound 3.16 µM, first compound 0.0316 µM
[18] = second compound 3.16 µM, first compound 0.1 µM
[19] = second compound 3.16 µM, first compound 0.316 µM
[20] = second compound 3.16 µM, first compound 1 µM
[21] = second compound 10 µM, first compound 0.0316 µM
[22] = second compound 10 µM, first compound 0.1 µM
[23] = second compound 10 µM, first compound 0.316 µM
[24] = second compound 10 µM, first compound 1 µM
[25] = second compound 0.0316 µM, first compound 0.00316 µM
[26] = second compound 0.0316 µM, first compound 0.01 µM
[27] = second compound 0.1 µM, first compound 0.00316 µM
[28] = second compound 0.1 µM, first compound 0.01 µM
[29] = second compound 0.316 µM, first compound 0.00316 µM
[30] = second compound 0.316 µM, first compound 0.01 µM
[31] = second compound 1 µM, first compound 0.00316 µM
[32] = second compound 1 µM, first compound 0.01 µM
[33] = second compound 3.16 µM, first compound 0.00316 µM
[34] = second compound 3.16 µM, first compound 0.01 µM
[35] = second compound 10 µM, first compound 0.00316 µM
[36] = second compound 10 µM, first compound 0.01 µM
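Note: spheroids exposed to drugs for seven days before reading.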
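Throughout, for viability, T/C: 100% = DMSO vehicle control viability in luminescence.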

`CCCS(=O)(=O)Nc1ccc(F)c(C(=O)c2c[nH]c3ncc(-c4ccc(Cl)cc4)cc23)c1F` + Cc1cccc(N(C)C(=O)C2C(O)CCN2c2nc(C)cc(C(F)(F)F)c2C#N)c1 was tested, and the IC50 (second compound 0.0316 µM) was over 10 µM, the IC50 (second compound 0.1 µM) was over 10 µM and the IC50 (second compound 0.316 µM) was over 10 µM. The IC50 (second compound 1 µM) was over 10 µM, the IC50 (second compound 3.16 µM) was over 10 µM and the IC50 (second compound 10 µM) was over 10 µM. It also gave a viability, T/C [1] of 101%, a viability, T/C [2] of 110% and a viability, T/C [3] of 96.8%. It also gave a viability, T/C [4] of 119%, a viability, T/C (second compound 0.0316 µM, first compound 3.16 µM) of 109% and a viability, T/C (second compound 0.0316 µM, first compound 10 µM) of 77.7%. It also gave a viability, T/C [5] of 105%, a viability, T/C [6] of 102% and a viability, T/C [7] of 106%. It also gave a viability, T/C [8] of 114%, a viability, T/C (second compound 0.1 µM, first compound 3.16 µM) of 101% and a viability, T/C (second compound 0.1 µM, first compound 10 µM) of 78.7%. For the same compound, the viability, T/C [9] was 106%, the viability, T/C [10] was 101% and the viability, T/C [11] was 97.3%. The viability, T/C [12] was 97%, the viability, T/C (second compound 0.316 µM, first compound 3.16 µM) was 105% and the viability, T/C (second compound 0.316 µM, first compound 10 µM) was 62.8%. The viability, T/C [13] was 113%, the viability, T/C [14] was 118% and the viability, T/C [15] was 103%. For the same compound, the viability, T/C [16] was 102%, the viability, T/C (second compound 1 µM, first compound 3.16 µM) was 120% and the viability, T/C (second compound 1 µM, first compound 10 µM) was 61.5%. For the same compound, the viability, T/C [17] was 101%, the viability, T/C [18] was 106% and the viability, T/C [19] was 105%. It also gave a viability, T/C [20] of 103%, a viability, T/C (second compound 3.16 µM, first compound 3.16 µM) of 102% and a viability, T/C (second compound 3.16 µM, first compound 10 µM) of 73.2%. The viability, T/C [21] was 110%, the viability, T/C [22] was 102% and the viability, T/C [23] was 98.3%. The viability, T/C [24] was 106%, the viability, T/C (second compound 10 µM, first compound 3.16 µM) was 124% and the viability, T/C (second compound 10 µM, first compound 10 µM) was 66.2%.

Compound `COc1cccc(OCCCN)c1-c1cc(Nc2cnc(C#N)cn2)n[nH]1` + Cc1cccc(N(C)C(=O)C2C(O)CCN2c2nc(C)cc(C(F)(F)F)c2C#N)c1 has an IC50 (second compound 0.0316 µM) of 0.0283 µM, an IC50 (second compound 0.1 µM) of 0.0301 µM and an IC50 (second compound 0.316 µM) of 0.0484 µM. It also gave an IC50 (second compound 1 µM) of 0.0716 µM, an IC50 (second compound 3.16 µM) of 0.0591 µM and an IC50 (second compound 10 µM) of 0.0546 µM. The viability, T/C [25] was 91.4%, the viability, T/C [26] was 92.1% and the viability, T/C [1] was 45.4%. It also gave a viability, T/C [2] of 41%, a viability, T/C [3] of 39.8% and a viability, T/C [4] of 38%. For the same compound, the viability, T/C [27] was 107%, the viability, T/C [28] was 83.4% and the viability, T/C [5] was 49.5%. It also gave a viability, T/C [6] of 35.5%, a viability, T/C [7] of 41.1% and a viability, T/C [8] of 39%. The viability, T/C [29] was 100%, the viability, T/C [30] was 86.2% and the viability, T/C [9] was 54%. For the same compound, the viability, T/C [10] was 44%, the viability, T/C [11] was 38.1% and the viability, T/C [12] was 43.4%. For the same compound, the viability, T/C [31] was 115%, the viability, T/C [32] was 97.4% and the viability, T/C [13] was 62%. For the same compound, the viability, T/C [14] was 44.9%, the viability, T/C [15] was 45.3% and the viability, T/C [16] was 36.8%. For the same compound, the viability, T/C [33] was 108%, the viability, T/C [34] was 99.2% and the viability, T/C [17] was 58.8%. For the same compound, the viability, T/C [18] was 41.5%, the viability, T/C [19] was 44.1% and the viability, T/C [20] was 39.9%. For the same compound, the viability, T/C [35] was 105%, the viability, T/C [36] was 89.4% and the viability, T/C [21] was 53%. It also gave a viability, T/C [22] of 47.2%, a viability, T/C [23] of 48% and a viability, T/C [24] of 43.6%.

Work on `Cn1ncnc1[C@H]1c2n[nH]c(=O)c3cc(F)cc(c23)N[C@@H]1c1ccc(F)cc1` + Cc1cccc(N(C)C(=O)C2C(O)CCN2c2nc(C)cc(C(F)(F)F)c2C#N)c1 yielded an IC50 (second compound 0.0316 µM) of over 0.1 µM, an IC50 (second compound 0.1 µM) of over 0.1 µM and an IC50 (second compound 0.316 µM) of over 0.1 µM. For the same compound, the IC50 (second compound 1 µM) was over 0.1 µM, the IC50 (second compound 3.16 µM) was over 0.1 µM and the IC50 (second compound 10 µM) was over 0.1 µM. It also gave a viability, T/C (second compound 0.0316 µM, first compound 0.000316 µM) of 109%, a viability, T/C (second compound 0.0316 µM, first compound 0.001 µM) of 96.1% and a viability, T/C [25] of 96.3%. For the same compound, the viability, T/C [26] was 103%, the viability, T/C [1] was 110% and the viability, T/C [2] was 88.6%. For the same compound, the viability, T/C (second compound 0.1 µM, first compound 0.000316 µM) was 99.2%, the viability, T/C (second compound 0.1 µM, first compound 0.001 µM) was 96.3% and the viability, T/C [27] was 105%. It also gave a viability, T/C [28] of 101%, a viability, T/C [5] of 108% and a viability, T/C [6] of 101%. For the same compound, the viability, T/C (second compound 0.316 µM, first compound 0.000316 µM) was 111%, the viability, T/C (second compound 0.316 µM, first compound 0.001 µM) was 103% and the viability, T/C [29] was 114%. For the same compound, the viability, T/C [30] was 105%, the viability, T/C [9] was 103% and the viability, T/C [10] was 102%. It also gave a viability, T/C (second compound 1 µM, first compound 0.000316 µM) of 110%, a viability, T/C (second compound 1 µM, first compound 0.001 µM) of 108% and a viability, T/C [31] of 109%. The viability, T/C [32] was 103%, the viability, T/C [13] was 100% and the viability, T/C [14] was 95.3%. It also gave a viability, T/C (second compound 3.16 µM, first compound 0.000316 µM) of 125%, a viability, T/C (second compound 3.16 µM, first compound 0.001 µM) of 106% and a viability, T/C [33] of 112%. The viability, T/C [34] was 101%, the viability, T/C [17] was 118% and the viability, T/C [18] was 96.9%. For the same compound, the viability, T/C (second compound 10 µM, first compound 0.000316 µM) was 114%, the viability, T/C (second compound 10 µM, first compound 0.001 µM) was 103% and the viability, T/C [35] was 119%. For the same compound, the viability, T/C [36] was 102%, the viability, T/C [21] was 111% and the viability, T/C [22] was 101%.
